# Data published in patent US20090023186A1, “USE OF VALPROIC ACID FOR ENHANCING PRODUCTION OF RECOMBINANT PROTEINS IN MAMMALIAN CELLS” (EXCELLGENE SA, priority 2007, published 2009).
# Tested on: CHO DG44 cells
# Test: Multiple VPA additions, IgG batch titer by ELISA (Example 3)
# Assay type: cell-based, Chinese Hamster
# Settings: day 10 after transfection
# Description: 10 million suspension-adapted HEK293E cells were resuspended in 0.5 ml of Ex-Cell 293 HEK 293 serum-free medium with 4 mmol/l L-glutamine (Cat. No. 14571C-[…]; Lot No. 6A0093; SAFC Biosciences, Lenexa, Kans., USA, “Ex-Cell” medium; note: “Ex-Cell” medium-as used herein-refers to a medium comprising 4 mmol/l L-glutamine) in a 50-ml filter tube each (TPP AG, Trasadingen, Switzerland; Cat. No. 87050, Lot 20050174). In a separate set, 10 million suspension-adapted CHO DG44 cells were resuspended in 0.5 ml of ProCHO5 serum-free medium with 4 mmol/[…] hypoxanthine and 0.194 g/l thymidine (BioWhittaker (Lonza), Belgium; Cat. No. BE12-[…]; Lot No. 7 MB0040; “ProCHO5” medium; note: “ProCHO5” medium-as used herein-refers to a medium comprising 4 mmol/[…] hypoxanthine and 0.194 g/l thymidine) in a 50-ml filter tube each (TPP AG, Trasadingen, Switzerland; Cat. No. 87050, Lot 20050174). Then 12.5 μg plasmid DNA at a concentration of 1 μg/μl was added in each tube with the following composition 50% (6.25 μg) p-LC (SEQ ID NO: 1) 50% (6.25 μg) p-HC (SEQ ID NO: 3). Plasmid p-LC comprises the genetic information for the production of the light chain of an IgG antibody, plasmid p-HC comprises the genetic information for the production of the heavy chain of an IgG antibody. The particular vector constructs used in the present invention can also be obtained from the inventors. The inventors can be contacted via e-mail at […]. […] In short, Goat anti-human kappa light chain IgG (Biosource) was used for coating the ELISA-plates, and with AP-conjugated goat anti-human gamma chain IgG (Biosource) the synthesized IgG1 was detected. […] Absorption was measured at 405 nm against 490 nm using a microplate reader (SPECTRAmaxTM340; Molecular Devices, Palo Alto, Calif., USA).
smiles,measurement,setting,value
"CCCC(CCC)C(=O)O [VPA, valproic acid]",Batch titer,0.5 mmol/l VPA at day 0,35.8 mg/L
same,"batch titers, direct addition versus slowly increasing concentration",,statistically not different
same,Batch titer,"escalating dosage, 0.125 to 0.5 mmol/l in 0.125 mmol/l increments every other day",37.9 mg/L
